US6495591B1, “Fungal efflux pump inhibitors” (Essential Therapeutics, Inc., priority 1997, dated 2002)
Where two headings read alike, the source gives them in different places.

Assays:
[1] = tested on: YEM 15 C. albicans, CDR1CDR2 up; assay: microbe, parasite or virus in culture; format: cell-based; conditions: YEM 15, 24 hrs, 80% inhibition; for MIC of compound in the presence of fluconazole (+): 1/8 × MIC of fluconazole
[2] = target: pBEN (MF) efflux pump in S. cerevisiae YEM-2 (Candida albicans, UniProt P28873); assay: cell-based; format: cell-based, C. albicans
YEM 51 C. glabrata wt = assay: FEPI MIC with/without 1/8 fluconazole MIC at 24 hrs (Table 11); format: cell-based; conditions: for MIC of compound in the absence of fluconazole (−): YEM 51, 24 hrs, 80% inhibition
[3] = target: pCDR2 (ABC) efflux pump in S. cerevisiae YEM-37 (Candida albicans, UniProt P78595); assay: cell-based; format: cell-based, C. albicans
[4] = target: pFLU (MF) efflux pump in S. cerevisiae YEM-38 (Candida albicans, UniProt G1UB37); assay: cell-based; format: cell-based, C. albicans
[5] = tested on: YEM 13 C. albicans BEN up; assay: microbe, parasite or virus in culture; format: cell-based; conditions: YEM 13, 24 hrs, 80% inhibition; for MIC of compound in the presence of fluconazole (+): 1/8 × MIC of fluconazole
[6] = tested on: YEM 27 C. albicans ΔCDR1ΔCDR2 ΔBENΔFLU1; assay: microbe, parasite or virus in culture; format: cell-based; conditions: YEM 27, 24 hrs, 80% inhibition; for MIC of compound in the presence of fluconazole (+): 1/8 × MIC of fluconazole
[7] = target: pCDRI (ABC) efflux pump in S. cerevisiae YEM-1 (Candida albicans, UniProt P43071); assay: cell-based; format: cell-based, C. albicans
YEM 53 C. krusei = assay: FEPI MIC with/without 1/8 fluconazole MIC at 24 hrs (Table 11); format: cell-based; conditions: for MIC of compound in the absence of fluconazole (−): YEM 53, 24 hrs, 80% inhibition
YEM 30 C. albicans wt = assay: as above; format: cell-based; conditions: for MIC of compound in the absence of fluconazole (−): YEM 30, 24 hrs, 80% inhibition
[8] = target: pCgCDR (ABC) efflux pump in S. cerevisiae YEM-39 (Candida glabrata, UniProt Q6FK23); assay: cell-based; format: cell-based, C. glabrata
Aspergillus fumigatus = assay: FEPI MICs in combination with 1/4 the azole's MIC (Table 12); format: cell-based; conditions: for FEPI MIC with itraconazole, 60% Inh / FEPI MIC with itraconazole, 80% Inh: itraconazole 0.063 μg/ml (1/4 MIC); for FEPI MIC with itraconazole, 60% Inh / FEPI MIC with ketoconazole, 60% Inh: 60% inhibition; for FEPI MIC with itraconazole, 80% Inh / FEPI MIC with ketoconazole, 80% Inh / FEPI MIC (alone): 80% inhibition; for FEPI MIC with ketoconazole, 60% Inh / FEPI MIC with ketoconazole, 80% Inh: ketoconazole 4 μg/ml (1/4 MIC); for FEPI MIC (alone): no azole, 35° C., CM Broth
Method: The combinations were tested against a series of Candida strain with known expression of efflux pumps or with complete deletion of all known pumps and Aspergillus fumigatus. Results are reported as minimum inhibitory concentration (MIC) of […] in the presence or absence of […]. A total of 27 distinct milbemycins were studied.

[9] = tested on: pCgBEN (MF) efflux pump in S. cerevisiae YEM-40; format: cell-based, C. glabrata; conditions: YEM-40 pCgBEN; fluconazole fixed at FLUhalf 2.8
[10] = tested on: YEM 24 C. albicans ΔCDR1, ΔCDR2; assay: microbe, parasite or virus in culture; format: cell-based; conditions: YEM 24, 24 hrs, 80% inhibition; for MIC of compound in the presence of fluconazole (+): 1/8 × MIC of fluconazole
[11] = tested on: YEM 17 C. glabrata, CgCDR up; format: cell-based; conditions: 24 hrs, 80% inhibition; for MIC of compound in the presence of fluconazole (+): 1/8 × MIC of fluconazole
[12] = read-out: FEPIhalf (concentration needed to reduce activity of efflux pump by 50%), YEM-2 pBEN, fluconazole fixed at FLUhalf 5.6
[13] = read-out: FEPIhalf (concentration needed to reduce activity of efflux pump by 50%), YEM-37 pCDR2, fluconazole fixed at FLUhalf 1
[14] = read-out: FEPIhalf (concentration needed to reduce activity of efflux pump by 50%), YEM-38 pFLU, fluconazole fixed at FLUhalf 2
[15] = read-out: FEPIhalf (concentration needed to reduce activity of efflux pump by 50%), YEM-1 pCDRI, fluconazole fixed at FLUhalf 5.6
[16] = read-out: FEPIhalf (concentration needed to reduce activity of efflux pump by 50%), YEM-39 pCgCDR, fluconazole fixed at FLUhalf 4

Sequence of pCDRI (ABC) efflux pump in S. cerevisiae YEM-1 (P43071 whole entry): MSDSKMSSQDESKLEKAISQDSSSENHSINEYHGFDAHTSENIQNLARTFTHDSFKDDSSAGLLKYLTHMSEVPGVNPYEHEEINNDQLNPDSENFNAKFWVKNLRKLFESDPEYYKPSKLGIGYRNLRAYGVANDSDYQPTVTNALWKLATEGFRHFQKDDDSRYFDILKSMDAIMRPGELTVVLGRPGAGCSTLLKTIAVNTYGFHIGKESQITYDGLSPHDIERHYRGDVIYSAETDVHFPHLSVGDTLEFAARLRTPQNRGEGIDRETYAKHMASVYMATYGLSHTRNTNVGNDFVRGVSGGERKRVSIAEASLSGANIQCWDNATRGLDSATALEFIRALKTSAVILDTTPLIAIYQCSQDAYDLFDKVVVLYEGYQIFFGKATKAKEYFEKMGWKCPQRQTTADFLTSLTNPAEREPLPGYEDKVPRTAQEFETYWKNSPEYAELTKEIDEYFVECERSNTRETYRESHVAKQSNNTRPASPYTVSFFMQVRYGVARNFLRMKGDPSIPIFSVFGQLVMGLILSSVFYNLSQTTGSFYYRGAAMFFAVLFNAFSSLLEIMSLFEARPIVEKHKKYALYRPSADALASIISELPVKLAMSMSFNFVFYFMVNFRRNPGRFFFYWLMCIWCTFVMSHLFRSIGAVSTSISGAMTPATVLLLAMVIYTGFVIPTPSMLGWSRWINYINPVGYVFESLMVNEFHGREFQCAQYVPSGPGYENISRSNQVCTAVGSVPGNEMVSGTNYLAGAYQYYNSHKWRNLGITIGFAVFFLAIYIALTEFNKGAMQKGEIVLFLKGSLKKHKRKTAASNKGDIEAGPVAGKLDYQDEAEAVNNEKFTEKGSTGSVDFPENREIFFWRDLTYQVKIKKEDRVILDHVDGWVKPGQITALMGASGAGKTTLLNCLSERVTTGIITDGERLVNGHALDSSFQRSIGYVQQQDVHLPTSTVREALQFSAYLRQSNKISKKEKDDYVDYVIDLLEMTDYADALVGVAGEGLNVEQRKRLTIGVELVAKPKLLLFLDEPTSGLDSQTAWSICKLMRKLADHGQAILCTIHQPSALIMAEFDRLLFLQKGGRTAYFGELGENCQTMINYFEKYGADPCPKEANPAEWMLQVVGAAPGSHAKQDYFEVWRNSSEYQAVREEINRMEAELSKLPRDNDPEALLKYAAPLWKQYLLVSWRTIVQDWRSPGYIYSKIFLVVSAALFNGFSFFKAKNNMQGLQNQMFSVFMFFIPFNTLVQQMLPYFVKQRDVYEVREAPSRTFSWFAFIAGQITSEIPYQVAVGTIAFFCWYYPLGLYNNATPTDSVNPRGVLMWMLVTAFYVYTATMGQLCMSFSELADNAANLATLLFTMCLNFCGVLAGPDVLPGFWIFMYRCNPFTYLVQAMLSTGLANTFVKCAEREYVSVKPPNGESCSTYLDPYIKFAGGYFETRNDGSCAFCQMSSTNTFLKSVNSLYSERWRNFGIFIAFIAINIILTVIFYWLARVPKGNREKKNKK
Sequence of pCDR2 (ABC) efflux pump in S. cerevisiae YEM-37 (P78595 whole entry): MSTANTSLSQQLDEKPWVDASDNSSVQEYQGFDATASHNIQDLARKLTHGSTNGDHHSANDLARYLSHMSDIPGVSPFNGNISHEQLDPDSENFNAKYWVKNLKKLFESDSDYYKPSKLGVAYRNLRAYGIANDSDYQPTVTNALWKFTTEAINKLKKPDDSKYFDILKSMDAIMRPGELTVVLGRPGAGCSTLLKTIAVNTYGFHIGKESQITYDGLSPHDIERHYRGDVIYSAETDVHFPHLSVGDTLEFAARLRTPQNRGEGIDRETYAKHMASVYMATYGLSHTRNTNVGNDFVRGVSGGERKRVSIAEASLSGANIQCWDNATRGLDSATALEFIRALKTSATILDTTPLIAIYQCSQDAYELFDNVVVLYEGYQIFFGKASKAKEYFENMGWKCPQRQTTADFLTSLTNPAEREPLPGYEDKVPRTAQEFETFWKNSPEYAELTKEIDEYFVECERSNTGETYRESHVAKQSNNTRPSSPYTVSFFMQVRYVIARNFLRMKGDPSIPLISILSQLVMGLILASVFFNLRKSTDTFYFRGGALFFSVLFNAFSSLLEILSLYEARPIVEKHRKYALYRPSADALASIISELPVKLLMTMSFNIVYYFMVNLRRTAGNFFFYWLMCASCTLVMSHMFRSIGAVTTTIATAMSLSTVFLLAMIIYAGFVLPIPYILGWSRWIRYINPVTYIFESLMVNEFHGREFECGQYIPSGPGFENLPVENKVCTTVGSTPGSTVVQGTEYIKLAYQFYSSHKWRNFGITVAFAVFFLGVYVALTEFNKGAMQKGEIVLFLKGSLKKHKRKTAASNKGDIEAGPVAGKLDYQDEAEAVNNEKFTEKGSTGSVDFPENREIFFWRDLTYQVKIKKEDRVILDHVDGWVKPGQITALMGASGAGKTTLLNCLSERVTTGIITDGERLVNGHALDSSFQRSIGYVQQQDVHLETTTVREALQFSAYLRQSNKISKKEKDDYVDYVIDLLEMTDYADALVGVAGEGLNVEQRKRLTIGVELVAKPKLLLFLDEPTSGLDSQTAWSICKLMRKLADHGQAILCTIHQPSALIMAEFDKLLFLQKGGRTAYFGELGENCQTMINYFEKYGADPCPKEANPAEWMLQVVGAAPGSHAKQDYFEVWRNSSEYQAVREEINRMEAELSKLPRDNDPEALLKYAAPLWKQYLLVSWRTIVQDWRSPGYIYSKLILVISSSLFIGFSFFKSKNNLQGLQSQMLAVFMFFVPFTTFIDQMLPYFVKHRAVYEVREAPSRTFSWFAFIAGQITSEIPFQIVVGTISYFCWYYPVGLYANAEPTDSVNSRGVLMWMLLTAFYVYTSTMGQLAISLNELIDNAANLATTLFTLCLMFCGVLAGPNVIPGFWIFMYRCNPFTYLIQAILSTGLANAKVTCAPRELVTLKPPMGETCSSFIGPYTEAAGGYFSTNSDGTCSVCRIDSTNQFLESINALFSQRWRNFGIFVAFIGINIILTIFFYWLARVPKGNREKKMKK
Sequence of pFLU (MF) efflux pump in S. cerevisiae YEM-38 (G1UB37 whole entry): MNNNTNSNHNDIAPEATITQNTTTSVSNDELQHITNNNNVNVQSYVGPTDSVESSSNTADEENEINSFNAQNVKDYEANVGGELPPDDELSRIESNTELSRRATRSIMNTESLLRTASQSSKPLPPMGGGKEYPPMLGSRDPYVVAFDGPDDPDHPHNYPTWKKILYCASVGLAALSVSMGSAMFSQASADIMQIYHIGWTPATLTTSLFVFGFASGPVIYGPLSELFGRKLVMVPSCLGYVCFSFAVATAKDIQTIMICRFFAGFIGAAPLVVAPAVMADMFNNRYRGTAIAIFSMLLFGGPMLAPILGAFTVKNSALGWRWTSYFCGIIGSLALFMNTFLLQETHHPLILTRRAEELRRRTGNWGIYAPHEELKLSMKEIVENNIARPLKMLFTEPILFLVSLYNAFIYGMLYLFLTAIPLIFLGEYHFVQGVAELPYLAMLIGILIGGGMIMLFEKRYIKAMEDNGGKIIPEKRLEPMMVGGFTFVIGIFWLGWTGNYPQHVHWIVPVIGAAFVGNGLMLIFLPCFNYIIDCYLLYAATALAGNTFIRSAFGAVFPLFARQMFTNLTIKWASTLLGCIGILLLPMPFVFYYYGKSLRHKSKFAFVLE
Sequence of pBEN (MF) efflux pump in S. cerevisiae YEM-2 (P28873 whole entry): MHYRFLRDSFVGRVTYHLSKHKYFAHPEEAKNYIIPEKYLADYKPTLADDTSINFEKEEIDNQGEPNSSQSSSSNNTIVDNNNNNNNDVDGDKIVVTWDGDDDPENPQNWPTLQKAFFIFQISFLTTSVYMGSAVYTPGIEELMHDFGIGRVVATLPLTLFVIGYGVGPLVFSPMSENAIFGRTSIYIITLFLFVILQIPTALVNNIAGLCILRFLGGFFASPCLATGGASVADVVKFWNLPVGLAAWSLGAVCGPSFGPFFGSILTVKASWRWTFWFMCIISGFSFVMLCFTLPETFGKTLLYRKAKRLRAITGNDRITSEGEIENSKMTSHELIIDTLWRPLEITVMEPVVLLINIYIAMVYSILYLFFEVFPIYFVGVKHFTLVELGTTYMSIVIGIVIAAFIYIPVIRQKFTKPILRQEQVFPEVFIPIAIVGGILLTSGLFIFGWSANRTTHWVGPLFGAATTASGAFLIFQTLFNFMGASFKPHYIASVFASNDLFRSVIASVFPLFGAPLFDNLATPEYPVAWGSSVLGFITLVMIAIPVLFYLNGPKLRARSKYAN

Row | SMILES | MIC of compound in the presence of fluconazole (+) [1] [µg/mL] | MIC of compound in the absence of fluconazole (−) [1] [µg/mL] | MIC of compound in the presence of fluconazole (+) (YEM 51 C. glabrata wt) [µg/mL] | MIC of compound in the absence of fluconazole (−) (YEM 51 C. glabrata wt) [µg/mL] | MIC of compound in the presence of fluconazole (+) [5] [µg/mL] | MIC of compound in the absence of fluconazole (−) [5] [µg/mL] | MIC of compound in the presence of fluconazole (+) [6] [µg/mL] | MIC of compound in the absence of fluconazole (−) [6] [µg/mL] | MIC of compound in the presence of fluconazole (+) (YEM 53 C. krusei) [µg/mL] | MIC of compound in the absence of fluconazole (−) (YEM 53 C. krusei) [µg/mL] | MIC of compound in the presence of fluconazole (+) (YEM 30 C. albicans wt) | MIC of compound in the absence of fluconazole (−) (YEM 30 C. albicans wt) [µg/mL] | FEPI MIC with fluconazole, 60% Inh (Aspergillus fumigatus) | FEPI MIC with fluconazole, 80% Inh (Aspergillus fumigatus) | FEPI MIC with itraconazole, 60% Inh (Aspergillus fumigatus) | FEPI MIC with itraconazole, 80% Inh (Aspergillus fumigatus) | FEPI MIC with ketoconazole, 60% Inh (Aspergillus fumigatus) | FEPI MIC with ketoconazole, 80% Inh (Aspergillus fumigatus) | FEPI MIC (alone) (Aspergillus fumigatus) | FEPIhalf (concentration needed to reduce activity of efflux pump by 50%) [9] | also measured
1 | CCCCC(C)C(=O)OC1[C@@H](O)[C@]2(C[C@@H]3C[C@@H](C/C=C(\C)C[C@@H](C)/C=C/C=C4\CO[C@@H]5[C@H](OC)C(C)=CC(C(=O)O3)[C@]45O)O2)O[C@H](C)[C@H]1C (stereo partly drawn) [Compound 9, Milbemycin α6] | 0.125 | > 64 | 1 | > 64 | > 64 | > 64 | > 64 | > 64 | > 64 | > 64 | ≦0.03 | > 64 | 64 | >64 | 1 | >64 | ≦0.063 | ≦0.063 | >64 | >64 | IC50 [2, 12]: > 93.2 µM; IC50 [3, 13]: > 93.2 µM; IC50 [4, 14]: > 93.2 µM; IC50 [7, 15]: 2.91 µM; IC50 [8, 16]: 1.46 µM; MIC of compound in the presence of fluconazole (+) [10]: > 64 µg/mL; MIC of compound in the absence of fluconazole (−) [10]: > 64 µg/mL; MIC of compound in the presence of fluconazole (+) [11]: 0.5 µg/mL; MIC of compound in the absence of fluconazole (−) [11]: > 64 µg/mL
2 | CC1=C[C@H]2C(=O)O[C@H]3C[C@@H](C/C=C(\C)C[C@@H](C)/C=C/C=C4\CO[C@H]([C@@H]1O)[C@@]42O)O[C@]1(C3)C[C@H](O)[C@H](C)[C@@H](/C(C)=C/C(C)C)O1 [Compound 15, LL-F2849α (nemedectinα)] | 0.5 | > 64 | 4 | > 64 | > 64 | > 64 | > 64 | > 64 | > 64 | > 64 | ≦0.03 | > 64 | 0.25 | >64 | 1 | >64 | 0.25 | 0.25 | >64 | >64 | IC50 [2]: > 104 µM; IC50 [3]: 1.63 µM; IC50 [4]: > 104 µM; IC50 [7]: 3.26 µM; IC50 [8]: 6.53 µM; MIC of compound in the presence of fluconazole (+) [10]: > 64 µg/mL; MIC of compound in the absence of fluconazole (−) [10]: > 64 µg/mL; MIC of compound in the presence of fluconazole (+) [11]: 2 µg/mL; MIC of compound in the absence of fluconazole (−) [11]: > 64 µg/mL
3 | CO[C@@H]1C(C)=C[C@H]2C(=O)O[C@H]3C[C@@H](C/C=C(\C)C[C@@H](C)/C=C/C=C4\CO[C@H]1[C@@]42O)O[C@]1(C3)C[C@H](O)[C@H](C)[C@@H](/C(C)=C/C(C)C)O1 [Compound 16, LL-F2849λ (nemedectinλ)] | 0.125 | > 64 | 2 | > 64 | 64 | > 64 | > 64 | > 64 | > 64 | > 64 | ≦0.03 | > 64 | >64 | >64 | 1 | >64 | 0.125 | 0.125 | >64 | >64 | IC50 [2, 12]: > 102 µM; IC50 [3, 13]: 0.399 µM; IC50 [4, 14]: > 102 µM; IC50 [7, 15]: 1.6 µM; IC50 [8, 16]: 102 µM; MIC of compound in the presence of fluconazole (+) [10]: > 64 µg/mL; MIC of compound in the absence of fluconazole (−) [10]: > 64 µg/mL; MIC of compound in the presence of fluconazole (+) [11]: 32 µg/mL; MIC of compound in the absence of fluconazole (−) [11]: > 64 µg/mL
4 | CCC(CC)C(=O)OCC1=C[C@H]2C(=O)O[C@H]3C[C@@H](C/C=C(\C)C[C@@H](C)/C=C/C=C4\CO[C@H]([C@@H]1O)[C@@]42O)O[C@@]1(CC[C@H](C)[C@@H](C)O1)C3 [Compound 21, 4a-O-(2-ethyl)butyryl milbemycin α1] | 1 | > 64 | 8 | > 64 | > 64 | > 64 | > 64 | > 64 | 8 | > 64 | 0.125 µg/mL | > 64 | 8 | 8 | 1 | 8 | ≦0.063 | ≦0.063 | >64 | >64 | IC50 [2]: > 99.6 µM; IC50 [3]: 6.22 µM; IC50 [4]: > 99.6 µM; IC50 [7]: 1.56 µM; IC50 [8]: > 99.6 µM; MIC of compound in the presence of fluconazole (+) [10]: > 64 µg/mL; MIC of compound in the absence of fluconazole (−) [10]: > 64 µg/mL; MIC of compound in the presence of fluconazole (+) [11]: 8 µg/mL; MIC of compound in the absence of fluconazole (−) [11]: > 64 µg/mL
